According to ChEMBL document CHEMBL4689842, “EUbOPEN Chemogenomics Library wave 1” (2021):

Columns and labels:
HEK-293T = assay: Incucyte cell viability with HEK293T; assay type: toxicity, cell-based; details: human, 10 µM, compound concentration 10 uM
Fibroblast = assay: Incucyte cell viability with human fibroblast; assay type: toxicity, cell-based; details: 10 µM, compound concentration 10 uM
[1] = 0 h, replicate number 2, timepoint 0 hours
[2] = 6 h, replicate number 1, timepoint 6 hours
[3] = 6 h, replicate number 2, timepoint 6 hours
[4] = 12 h, replicate number 1, timepoint 12 hours
[5] = 18 h, replicate number 1, timepoint 18 hours
[6] = 24 h, replicate number 1, timepoint 24 hours
[7] = 0 h, replicate number 1, timepoint 0 hours
[8] = 18 h, replicate number 2, timepoint 18 hours
[9] = 24 h, replicate number 2, timepoint 24 hours
[10] = 12 h, replicate number 2, timepoint 12 hours
Also: filed as whole numbers so only -1 and 0 and 1 occur.

Row | Structure (SMILES) | Growth Rate (HEK-293T; [1]) | Growth Rate (HEK-293T; [2]) | Growth Rate (HEK-293T; [3]) | Growth Rate (HEK-293T; [4]) | Growth Rate (HEK-293T; [5]) | Growth Rate (HEK-293T; [6]) | Growth Rate (Fibroblast; [7]) | Growth Rate (Fibroblast; [2]) | Growth Rate (Fibroblast; [4]) | Growth Rate (Fibroblast; [5]) | Growth Rate (Fibroblast; [6]) | Growth Rate (Fibroblast; [8]) | Growth Rate (Fibroblast; [9]) | Growth Rate (Fibroblast; [3]) | Growth Rate (Fibroblast; [1]) | Growth Rate (HEK-293T; [7]) | Growth Rate (HEK-293T; [10]) | Growth Rate (HEK-293T; [8]) | Growth Rate (Fibroblast; [10])
1 | CC(C)NCC(O)COc1ccc(CCOCC2CC2)cc1.Cl (stereo not drawn) [BETAXOLOL HYDROCHLORIDE] | 0 | 0 | 1 | 0 | 0 | 0 | 0 | 0 | 0 | 0 | 0 |  |  |  |  |  |  |  | 
2 | C[C@@]1(C(=O)Nc2ccc(F)nc2)CCCN1c1nc(Nc2cc(C3CC3)n[nH]2)c2cccn2n1 [BMS-754807] |  | 0 |  | 0 | 0 | 0 |  | 0 | 0 | 0 | 0 |  |  |  |  |  |  |  | 
3 | C=CC(=O)Nc1cc2c(Nc3ccc(F)c(Cl)c3)ncnc2cc1OCCCN1CCOCC1.Cl.Cl [CANERTINIB DIHYDROCHLORIDE] |  | 0 |  | 0 | 0 | 0 | 1 | 0 | 0 | 0 | 0 |  |  |  |  |  |  |  | 
4 | CN(C)C(=O)N[C@H]1CC[C@H](CCN2CCN(c3cccc(Cl)c3Cl)CC2)CC1.Cl [CARIPRAZINE HYDROCHLORIDE] | 1 | 0 |  | 0 | 0 | 0 | 0 | 0 | 0 | 1 | 1 | 0 | 0 |  |  |  |  |  | 
5 | C[C@@H](NCCCc1cccc(C(F)(F)F)c1)c1cccc2ccccc12.Cl [CINACALCET HYDROCHLORIDE] | 0 | 0 |  | 0 | 0 | 0 | 1 | 0 | 0 | 0 | 0 |  |  |  |  |  |  |  | 
6 | CN1CCC[C@@H]1CCO[C@](C)(c1ccccc1)c1ccc(Cl)cc1.O=C(O)/C=C/C(=O)O [CLEMASTINE FUMARATE] | 1 | 0 |  | 0 | 0 | 0 | 0 | 1 | 0 | 0 | 0 |  |  | 0 |  |  |  |  | 
7 | c1cn2cc(-c3ccc4cn[nH]c4c3)nc(Nc3ccc(N4CCOCC4)cc3)c2n1 [ENTOSPLETINIB] |  |  |  |  |  | 1 |  | 0 | 0 | 0 | 0 |  |  |  | 0 |  |  |  | 
8 | Cn1cc(C2=C(c3cn(C4CCN(Cc5ccccn5)CC4)c4ccccc34)C(=O)NC2=O)c2ccccc21 [ENZASTAURIN] |  | 0 |  | 0 | 0 | 0 |  | 0 | 0 | 0 | 0 |  |  |  |  |  |  |  | 
9 | CC[C@H](C)C(=O)O[C@H]1C[C@@H](C)C=C2C=C[C@H](C)[C@H](CC[C@@H]3C[C@@H](O)CC(=O)O3)[C@H]21 [LOVASTATIN] |  | 1 |  | 0 | 0 | 0 | 0 | 1 | 1 | 1 | 1 |  |  |  |  | 0 | 1 |  | 
10 | COc1ncc(-c2ccc3nccc(-c4ccnnc4)c3c2)cc1NS(=O)(=O)c1ccc(F)cc1F [OMIPALISIB] |  | 0 |  | 0 | 0 | 0 |  | 0 | 0 | 0 | 0 |  |  |  | 0 |  |  |  | 
11 | CN1CCN(c2ccc(OC(F)(F)F)c(Nc3ncc4c(n3)-c3c(c(C(N)=O)nn3CCO)CC4)c2)CC1 [ONVANSERTIB] | 0 | 0 |  | 0 | 0 | 0 |  | 0 | 0 | 0 | 0 |  |  |  |  | 1 |  |  | 
12 | CCN(CC)CCCCNc1ncc2cc(-c3cc(OC)cc(OC)c3)c(NC(=O)NC(C)(C)C)nc2n1 [PD-173074] |  | 0 |  | 0 | 0 | 0 | 1 | 1 | 0 | 0 | 0 |  |  |  | 0 | 1 |  |  | 
13 | Cc1nc(Nc2n[nH]c3c2CN(C(=O)N[C@H](CN(C)C)c2ccccc2)C3(C)C)c2sccc2n1 [PF-03758309] |  | 0 |  | 0 | 0 | 0 |  | 0 | 0 | 0 | 0 |  |  |  | 0 |  |  |  | 
14 | CN1CCN(CCOc2cc(OC3CCOCC3)c3c(Nc4c(Cl)ccc5c4OCO5)ncnc3c2)CC1 [SARACATINIB] |  | 0 |  | 0 | 0 | 0 | 0 |  |  | 1 | 1 |  |  |  |  |  |  |  | 
15 | Cc1nc(-c2ccc(-c3ccc(C(=O)N4CCc5cc6c(cc54)C4(CCN(C)CC4)CO6)cc3)c(C)c2)no1 [SB-224289] | 0 | 0 |  | 0 | 0 | 0 | 0 |  | 0 | 0 | 0 |  |  | 0 |  |  |  |  | 
16 | O=C1NCN(c2ccccc2)C12CCN(CCCOc1ccc(F)cc1)CC2 [SPIRAMIDE] |  | 0 |  | 0 | 0 | 0 | 1 | 0 | 0 | 0 | 0 |  |  |  |  | 0 |  |  | 
17 | Nc1c(C(=O)NCc2ccc(C(=O)NCCCC3CCCCC3)cc2)cnn1-c1ccccc1 [SR-318] |  |  | 0 |  | 1 | 0 | 0 | 1 | 1 | 0 | 0 |  |  | 0 | 1 | 0 | 0 | 0 | 0
18 | O=C(NCCCC1CCCCC1)c1ccc(CNC(=O)c2cnn(-c3ccccc3)c2C(F)(F)F)cc1 [SR-321] | 1 | 0 |  | 0 | 0 | 0 | 1 | 1 | 1 | 1 | 1 |  |  | 0 |  | 0 |  |  | 0
19 | Cc1nc(-c2cn3c(n2)-c2ccc(-c4cnn(C(C)(C)C(N)=O)c4)cc2OCC3)n(C(C)C)n1 [TASELISIB] |  | 0 |  | 0 | 0 | 0 | 0 | 0 | 0 | 0 | 0 |  |  |  | 1 |  |  |  | 
20 | COc1cccc([C@@H](C)NCCCc2ccccc2Cl)c1.Cl [TECALCET HYDROCHLORIDE] | 0 | 0 |  | 0 | 0 | 0 | 0 |  | 1 | 1 | 1 | 0 | 0 | 0 |  |  |  |  | 0
21 | Cl.N#Cc1ccc2[nH]cc(CCCCN3CCN(c4ccc5oc(C(N)=O)cc5c4)CC3)c2c1 [VILAZODONE HYDROCHLORIDE] |  | 0 |  | 0 | 0 | 0 | 0 |  | 1 | 0 | 0 |  |  | 0 |  | 0 |  |  | 0
